Laboratory results published in patent US20260335341A1, “METHODS FOR TREATING PAEDIATRIC NEUROLOGICAL DISORDERS” (Neurotech International Limited, priority 2022, published 2026).
Read-outs that look alike come from different tables or passages of the source.

Experiments:
[1] = Stability of NTI164 oil formulation at room temperature (UPLC)
TNF-ALPHA = experiment: TNF-alpha in microglial culture media, psylocibin combination (Example 9); format: cell-based; conditions: PBS control 1.00, positive activation I&I 10.67
Experimental: Microglia media harvested following treatment initiation was centrifuged briefly to remove particulates (300 g for 10 min). The level of TNFα in the microglial culture media was measured using a Bio-Plex 200 with a 96-well magnetic plate assay according to the manufacturer's instructions (Bio-Rad). The samples were run in duplicate that were averaged for analysis. At least three samples per group were run.

[2] = NTI164 oil, room temperature, Day 14

SMILES | Cannabinoid content of NTI164, Day 0 ([1]; NTI164 oil, room temperature) [mg/mL] | Cannabinoid content of NTI164, Day 2 ([1]; NTI164 oil, room temperature) [mg/mL] | Cannabinoid content of NTI164, Day 7 ([1]; NTI164 oil, room temperature) [mg/mL] | Cannabinoid content of NTI164, Day 14 [1, 2] [mg/mL] | Cannabinoid content of NTI164, Day 28 ([1]; NTI164 oil, room temperature) [mg/mL] | Cannabinoid content of NTI164, Week 5 ([1]; NTI164 oil, room temperature) [mg/mL] | Cannabinoid content of NTI164, Week 6 ([1]; NTI164 oil, room temperature) [mg/mL] | Cannabinoid content of NTI164, Week 32 ([1]; NTI164 oil, room temperature) [mg/mL] | Cannabinoid content of NTI164, Day 14 [1] [mg/mL] | TNF-alpha assessment result (TNF-ALPHA; 1 ug/ml) | TNF-alpha assessment result (TNF-ALPHA; 5 ug/ml)
CCCCCc1cc(O)c2c(c1)OC(C)(CCC=C(C)C)C=C2 (stereo not shown) [Cannabichrome(CBC), Cannabichromene] | 1.23 | 1.19 | 1.34 | 1.22 | 1.27 | 1.20 | 1.15 | 1.22 |  |  | 
CCCc1cc(O)c2c(c1)OC(C)(C)[C@@H]1CCC(C)=C[C@@H]21 [Tetrahydrocannabivarin (THCV), Tetrahydrocannabivarin] | <0.1 | <0.1 | <0.1 |  | <0.1 | <0.1 | <0.1 | <0.1 | <0.1 |  | 
CCCCCc1cc2c(c(O)c1C(=O)O)[C@@H]1C=C(C)CC[C@H]1C(C)(C)O2 [(Tetrahydrocannabinolic acid) (D9-THCA), Delta-9-tetrahydrocannabinolic acid] | 0.66 | 0.72 | 0.64 |  | 0.36 | 0.79 | 0.73 | <0.1 | 0.69 |  | 
CCCCCc1cc(O)c2c(c1)OC(C)(C)[C@@H]1CCC(C)=C[C@@H]21 [Tetrahydrocannabinol (D9-THC), Delta-9-tetrahydrocannabinol] | <0.1 | <0.1 | <0.1 | <0.1 | <0.1 | 0.14 | <0.1 | 0.11 |  |  | 
CN(C)CCc1c[nH]c2cccc(OP(=O)(O)O)c12 [SubP (Psylocibin), Psylocibin] |  |  |  |  |  |  |  |  |  | 4.87 | 9.17
C=C(C)[C@@H]1CCC(C)=C[C@H]1c1c(O)cc(CCCCC)c(C(=O)O)c1O [Cannabidiol acid (CBD-A), Cannabidiol acid] | 48.16 | 48.19 | 48.62 | 48.09 | 47.12 | 48.35 | 47.56 | 47.01 |  |  | 
CCCCCc1cc(O)c2c(c1)OC(C)(C)c1ccc(C)cc1-2 [Cannabinol (CBN), Cannabinol] | 2.32 | 2.54 | 2.48 |  | 2.56 | 2.22 | 2.27 | 2.21 | 2.33 |  | 
C=C(C)[C@@H]1CCC(C)=C[C@H]1c1c(O)cc(CCC)cc1O [Cannabidivarin (CBDV), Cannabidivarin] | <0.1 | <0.1 | <0.1 | <0.1 | <0.1 | 0.10 | <0.1 | 0.13 |  |  | 
CCCCCc1cc(O)c(C/C=C(\C)CCC=C(C)C)c(O)c1 [Cannabigerol (CBG), Cannabigerol] | 5.21 | 5.23 | 5.14 | 5.1 | 5.1 | 5.30 | 5.28 | 5.12 |  |  | 
CCCCCc1cc(O)c(C/C=C(\C)CCC=C(C)C)c(O)c1C(=O)O [Cannabigerol Acid(CBG-A), Cannabigerolic acid] | 1.07 | 1.18 | 1.20 | 1.19 | 0.81 | 1.08 | 1.00 | 1.05 |  |  | 
CCCCCc1cc(O)c2c(c1)OC(C)(C)C1CC=C(C)CC21 (stereo not shown) [DELTA-8-THC (D8-THC), Delta-8-tetrahydrocannabinol] | <0.1 | <0.1 | <0.1 |  | <0.1 | <0.1 | <0.1 | <0.1 | <0.1 |  | 
